Structures can show the parent of a compound that is named as a salt.
Key:
[1] = Physical stability under high humidity (92.5% RH); type: physicochemical; conditions: 11 days
Protocol: The physical stability of the Form A of the hemi-fumarate salt was evaluated under high humidity (92.5% RH) for 11 days.

[2] = Mechanical treatment (manual grinding) of Form A of the hemi-fumarate salt; type: physicochemical
Protocol: Appropriate amount of the Form A of the hemi-fumarate salt was ground for about two and five minutes manually and the samples were analyzed by XRPD (Example 1, XRPD). […] The crystallinity became low after grinding for five minutes. Solubility of the Form A of the Hemi-Fumarate Salt of the Compound of Formula (I) in Biologically Relevant Media

With `Cc1cc(NC(=O)[C@H](O)c2cc(F)cc(F)c2)ccc1-c1cnc(N)c(C(=O)NC(C)C)c1` [Form A of the hemi-fumarate salt, (R)-2-amino-5-(4-(2-(3,5-difluorophenyl)-2-hydroxyacetamido)-2-methylphenyl)-N-isopropylnicotinamide] the “Physical stability (form by XRPD)” value [1] was “No form change was detected”, the “Crystallinity after manual grinding” value ([2]; grinding for five minutes) was “became low” and the “XRPD form after manual grinding” value ([2]; ground for about two and five minutes manually) was “remained unchanged and no new form was obtained by grinding”.

— patent publication US20260265199A1, “CRYSTALLINE FORMS OF (R)-2-AMINO-5-(4-(2-(3,5-DIFLUOROPHENYL)-2-HYDROXYACETAMIDO)-2-METHYLPHENYL)-N-ISOPROPYLNICOTINAMIDE AND METHODS FOR USING THE SAME” (HIBERCELL, INC., priority 2023, published 2026)
